According to PMC6767909 (Journal of medicinal chemistry, 2019):
Where two headings read alike, the source gives them in different places. Each block holds one compound with its values, some of them ahead of it.

Key:
[1] = target: T1, recombinant human GVIA iPLA2 (Homo sapiens, UniProt O60733); assay: lipidomics-based mixed micelle assay, GVIA iPLA2; assay type: biochemical
T1 sequence (O60733 1-806): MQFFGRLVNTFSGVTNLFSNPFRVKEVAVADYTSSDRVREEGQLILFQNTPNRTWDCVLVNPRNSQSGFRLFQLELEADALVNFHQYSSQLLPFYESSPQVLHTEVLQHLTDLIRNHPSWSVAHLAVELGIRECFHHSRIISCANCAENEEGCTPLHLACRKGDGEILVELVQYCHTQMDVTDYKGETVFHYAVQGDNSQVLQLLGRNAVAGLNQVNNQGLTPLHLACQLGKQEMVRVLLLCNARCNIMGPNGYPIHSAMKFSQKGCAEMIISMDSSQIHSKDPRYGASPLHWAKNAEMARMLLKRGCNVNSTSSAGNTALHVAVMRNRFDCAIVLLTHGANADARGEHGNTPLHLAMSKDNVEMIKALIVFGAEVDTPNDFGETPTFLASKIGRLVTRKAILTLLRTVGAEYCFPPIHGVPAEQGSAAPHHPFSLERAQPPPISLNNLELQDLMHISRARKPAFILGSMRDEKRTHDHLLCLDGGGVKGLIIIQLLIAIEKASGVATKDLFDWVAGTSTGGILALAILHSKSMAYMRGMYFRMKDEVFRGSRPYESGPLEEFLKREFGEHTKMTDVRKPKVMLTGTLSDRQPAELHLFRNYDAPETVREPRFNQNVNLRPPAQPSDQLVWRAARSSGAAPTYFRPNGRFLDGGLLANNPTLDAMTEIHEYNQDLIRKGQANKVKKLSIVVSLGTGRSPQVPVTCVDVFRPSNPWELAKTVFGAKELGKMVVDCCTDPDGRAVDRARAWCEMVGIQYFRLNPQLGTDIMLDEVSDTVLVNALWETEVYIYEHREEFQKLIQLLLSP

[2] = target: T1, recombinant human GVIA iPLA2; conditions: cited from earlier work; for GVIA iPLA2 XI(50): radioactivity-based assay
[3] = target: T2, human GIVA cPLA2 (Homo sapiens, UniProt P47712); assay: lipidomics-based mixed micelle assay, GIVA cPLA2; assay type: biochemical; conditions: for GIVA cPLA2 XI(50): separated trans/cis diastereomers, lipidomics-based assay
T2 sequence (P47712 1-749): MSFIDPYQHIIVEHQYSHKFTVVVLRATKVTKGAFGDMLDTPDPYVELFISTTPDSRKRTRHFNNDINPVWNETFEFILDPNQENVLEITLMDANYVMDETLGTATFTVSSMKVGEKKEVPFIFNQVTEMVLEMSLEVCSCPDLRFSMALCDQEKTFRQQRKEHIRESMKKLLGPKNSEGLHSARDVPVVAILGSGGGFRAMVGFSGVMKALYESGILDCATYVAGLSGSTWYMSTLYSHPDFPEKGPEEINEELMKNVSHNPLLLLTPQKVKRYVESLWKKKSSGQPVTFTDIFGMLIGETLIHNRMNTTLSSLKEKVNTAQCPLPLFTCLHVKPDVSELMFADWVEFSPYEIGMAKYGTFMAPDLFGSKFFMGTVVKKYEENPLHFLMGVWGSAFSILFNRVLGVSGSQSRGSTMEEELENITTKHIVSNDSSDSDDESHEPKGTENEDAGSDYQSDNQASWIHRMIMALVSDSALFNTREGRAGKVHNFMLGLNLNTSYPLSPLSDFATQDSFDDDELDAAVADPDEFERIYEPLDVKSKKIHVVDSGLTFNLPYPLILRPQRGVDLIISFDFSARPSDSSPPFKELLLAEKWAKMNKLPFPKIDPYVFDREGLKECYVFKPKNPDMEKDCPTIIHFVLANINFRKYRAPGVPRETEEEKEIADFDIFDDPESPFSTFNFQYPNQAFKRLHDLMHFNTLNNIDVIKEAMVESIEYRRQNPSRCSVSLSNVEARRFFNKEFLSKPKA

[4] = system: INS-1 cells; assay type: cell-based
[5] = system: β-cell; conditions: cited from earlier work

Structure (SMILES): COc1ccc(CCCCC(=O)C(F)(F)C(F)(F)F)cc1 [2b]
GVIA iPLA2 XI(50) ([2]; listed as GK187): 0.0001 mole fraction

Structure (SMILES): O=C(CCCCc1ccccc1)C(F)(F)C(F)(F)F [2a]
GVIA iPLA2 XI(50) ([2]; listed as FKGK11): 0.0014 mole fraction

Structure (SMILES): COc1ccc(CCSCC(=O)c2noc(C(C)(C)C)n2)cc1 [compound 4]
GVIA iPLA2 XI(50) [2]: 0.0057 mole fraction

Structure (SMILES): CCC[C@@H]1OC(=O)[C@@H]1CCCc1ccc(OC)cc1 (racemic) [cis-9f, cis-(±)-3-(3-(4-Methoxyphenyl)propyl)-4-propyloxetan-2-one]
IC50 [1]: 20000 nM | IC50 [3]: 20 nM | times more potent for GIVA cPLA2 than for GVIA iPLA2 ([3]; GIVA cPLA2 over GVIA iPLA2): ~1000 times | GIVA cPLA2 XI(50) [3]: 0.00004 mole fraction

Structure (SMILES): O=C(CCCCc1ccc2ccccc2c1)C(F)(F)F [compound 3]
times more potent for GVIA iPLA2 than for GIVA cPLA2 [2]: 195 times | times more potent for GVIA iPLA2 than for GV sPLA2 [2]: > 455 times | inhibition of β-cell apoptosis [5]: able to inhibit β-cell apoptosis

Structure (SMILES): CCC[C@@H]1OC(=O)[C@@H]1CCCCc1ccc2ccccc2c1 (racemic) [cis-9j, cis-(±)-3-(4-(Naphthalen-2-yl)butyl)-4-propyloxetan-2-one]
IC50 [1]: 1000 nM

Structure (SMILES): CCC[C@@H]1OC(=O)[C@@H]1CCCc1ccccc1 (racemic) [cis-9d, cis-(±)-3-(3-Phenylpropyl)-4-propyloxetan-2-one]
IC50 [3]: 950 nM | GIVA cPLA2 XI(50) [3]: 0.0019 mole fraction

Continued, in another order:

IC50 [1]: 95 nM
Structure (SMILES): CCC[C@H]1OC(=O)[C@@H]1CCCc1ccccc1 (racemic) [trans-9d, trans-(±)-3-(3-Phenylpropyl)-4-propyloxetan-2-one]

times more active against GVIA iPLA2 than GIVA cPLA2 (selectivity) ([1]; GVIA iPLA2 over GIVA cPLA2): 22,000 times | potency on GVIA iPLA2 relative to FKGK18 ([1]; compared with fluoroketone FKGK18): a hundred times more potent | GIVA cPLA2 XI(50) [3]: 0.042 mole fraction
Structure (SMILES): CCC[C@H]1OC(=O)[C@@H]1CCCCc1ccccc1 (racemic) [trans-9k, trans-(±)-3-(4-Phenylbutyl)-4-propyloxetan-2-one]
inhibition (decrease) of cytokine-induced β-cell apoptosis ([4]; 0.10 μM, co-treatment with IL-1β + IFNγ, 16 h): minimal and non-significant effect | cytotoxicity on continuous exposure, compound alone ([4]; 0.10 or 1.0 μM, no cytokines): not cytotoxic

IC50 [1]: 95 nM
Structure (SMILES): CCC[C@H]1OC(=O)[C@@H]1CCCc1ccc(OC)cc1 (racemic) [trans-9f, trans-(±)-3-(3-(4-Methoxyphenyl)propyl)-4-propyloxetan-2-one]

IC50 [1]: 150 nM
Structure (SMILES): CCC[C@H]1OC(=O)[C@@H]1CCCc1ccc2ccccc2c1 (racemic) [trans-9e, trans-(±)-3-(3-(Naphthalen-2-yl)propyl)-4-propyloxetan-2-one]
